Assay results reported in ChEMBL document CHEMBL1155934, “Novel quinolinonyl diketo acid derivatives as HIV-1 integrase inhibitors: design, synthesis, and biological activities” (J Med Chem, 2008).
Calls of active or inactive are those of the source. The rule behind the calls is not given here.

Experiments:
[1] = molecular target: T1, Human immunodeficiency virus type 1 integrase (Human immunodeficiency virus 1, UniProt Q7ZJM1)
Description: Inhibition of recombinant HIV1 integrase strand transfer activity by high throughput electrochemiluminescent assay in presence of magnesium

U-937 = experiment: Cytotoxicity against human U937 cells after 24 hrs by MTT assay; details: u-937, 24 h
[2] = molecular target: T1, Human immunodeficiency virus type 1 integrase; experiment: Inhibition of recombinant HIV1 integrase 3'-end processing activity by gel-based assay in presence of magnesium
[3] = molecular target: Human immunodeficiency virus type 1 integrase (Human immunodeficiency virus 1) (UniProt Q7ZJM1); experiment: Inhibition of HIV1 recombinant integrase in presence of manganese
[4] = molecular target: T1, Human immunodeficiency virus type 1 integrase; experiment: Inhibition of recombinant HIV1 integrase strand transfer activity by gel-based assay in presence of magnesium
[5] = tested on: Human immunodeficiency virus 1; experiment: Antiviral activity against HIV1-infected in human H9/HTLV 3B cells after 4 days; format: functional, organism-based; details: Human immunodeficiency virus 1, 96 h

Human immunodeficiency virus type 1 integrase (Human immunodeficiency virus 1), sequence (Q7ZJM1 as listed by the source): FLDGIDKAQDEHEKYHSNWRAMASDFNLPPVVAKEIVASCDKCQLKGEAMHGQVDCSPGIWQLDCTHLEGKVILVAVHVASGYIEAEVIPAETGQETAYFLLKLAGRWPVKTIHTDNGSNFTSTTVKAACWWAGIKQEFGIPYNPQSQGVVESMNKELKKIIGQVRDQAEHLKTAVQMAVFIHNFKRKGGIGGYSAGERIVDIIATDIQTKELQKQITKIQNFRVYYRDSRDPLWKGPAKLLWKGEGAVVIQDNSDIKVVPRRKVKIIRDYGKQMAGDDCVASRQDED
T1 sequence (Q7ZJM1 whole entry): as the sequence (Q7ZJM1 as listed by the source) above

Row | Compound | IC50 [1] [nM] | CC50 (U-937) [µM] | IC50 [2] [µM] | Activity [3] | IC50 [4] [nM] | EC50 [5] [nM]
1 | O=C(O)/C(O)=C/C(=O)c1cn(Cc2ccc(F)cc2)c2c(F)cccc2c1=O | 18 | > 200 | 16 | Active | 160 | 
2 | O=C(O)/C(O)=C/C(=O)c1cn(Cc2ccc(F)cc2)c2cc(F)ccc2c1=O | 20 | > 200 | 4.4 | Active | 50 | 
3 | CCOC(=O)/C(O)=C/C(=O)c1c[nH]c2ccc(Cl)cc2c1=O | 3300 |  | 120 |  | 2100 | 
4 | CCOC(=O)/C(O)=C/C(=O)c1cn(Cc2ccc(F)cc2)c2cc(Cl)c(Cl)cc2c1=O | 3900 | 72 | 135 | Active | 1800 | 
5 | CCOC(=O)/C(O)=C/C(=O)c1cn(Cc2ccc(F)cc2)c2ccccc2c1=O | 670 | 99 | 135 | Active | 440 | 
6 | CCOC(=O)/C(O)=C/C(=O)c1cn(Cc2ccc(F)cc2)c2ccc(F)cc2c1=O | 580 | > 200 | > 333 | Active | 230 | 
7 | CCOC(=O)/C(O)=C/C(=O)c1c[nH]c2cc(Cl)ccc2c1=O | > 111000 |  | > 333 |  | 224000 | 
8 | O=C(O)C(=O)CC(=O)c1cccn1Cc1ccc(F)cc1 |  |  |  |  |  | 1000
9 | CCOC(=O)/C(O)=C/C(=O)c1cn(Cc2ccc(F)cc2)c2cc(N3CCCC3)ccc2c1=O | 2300 | > 200 | 110 | Active | 2700 | 
10 | O=C(O)/C(O)=C/C(=O)c1cn(Cc2ccc(F)cc2)c2cc(Cl)c(Cl)cc2c1=O | 33 | 156 | 11 | Active | 75 | 
11 | O=C(O)/C(O)=C/C(=O)c1cn(Cc2ccc(F)cc2)c2cc(N3CCCC3)ccc2c1=O | 28 | > 200 | 14 | Active | 180 | 
12 | CCOC(=O)/C(O)=C/C(=O)c1cn(Cc2ccc(F)cc2)c2c(Cl)cccc2c1=O | 32000 | > 200 | > 333 | Active | 5200 | 
13 | O=C(O)/C(O)=C/C(=O)c1cn(Cc2ccc(F)cc2)c2ccccc2c1=O | 40 | > 200 | 14 | Active | 60 | 
14 | O=C(O)/C(O)=C/C(=O)c1cn(Cc2ccc(F)cc2)c2c(Cl)cccc2c1=O |  | > 200 | 44 | Active | 510 | 
15 | O=C(O)/C(O)=C/C(=O)c1c[nH]c2cc(Cl)ccc2c1=O | 37000 |  | > 333 |  | 17000 | 
16 | O=C(O)/C(O)=C/C(=O)c1ccc2c(c1)c(=O)c(C(=O)/C=C(\O)C(=O)O)cn2Cc1ccc(F)cc1 |  | > 200 |  |  |  | 
17 | CCOC(=O)/C(O)=C/C(=O)c1cn(Cc2ccc(F)cc2)c2cc(F)ccc2c1=O | 1300 | > 200 | > 333 | Active | 1200 | 
18 | O=C(O)/C(O)=C/C(=O)c1cn(Cc2ccc(F)cc2)c2cc(Cl)ccc2c1=O | 19 | > 200 | 4 | Active | 110 | 
19 | CCOC(=O)/C(O)=C/C(=O)c1cn(Cc2ccc(F)cc2)c2ccc(Cl)cc2c1=O | 21000 |  | > 333 | Active | 3000 | 
20 | CCOC(=O)/C(O)=C/C(=O)c1cn(Cc2ccc(F)cc2)c2c(F)cccc2c1=O | 26000 | > 200 | > 333 | Active | 5200 | 
21 | O=C(O)/C(O)=C/C(=O)c1cn(Cc2ccc(F)cc2)c2ccc(Cl)cc2c1=O | 28 | > 200 | 6.4 | Active | 400 | 
22 | CCOC(=O)/C(O)=C/C(=O)c1cn(Cc2ccc(F)cc2)c2cc(Cl)ccc2c1=O | 14000 |  | > 333 | Active | 3600 | 
23 | O=C(O)/C(O)=C/C(=O)c1c[nH]c2ccc(Cl)cc2c1=O | > 111000 |  | 166 |  | 56000 | 
24 | O=C(O)/C(O)=C/C(=O)c1cn(Cc2ccc(F)cc2)c2ccc(F)cc2c1=O |  | > 200 | 2.3 | Active |  | 
